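Five concentrations, 48 hours, 96-well plates. GI50 is the concentration that inhibits growth by half.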 Calls of active or inactive are those of the source. Cut-off read from the data, not from the text of the source: active = GI50 up to about 1.1 µM and inactive = higher.
How the values were obtained:
Assay in all cases: NCI tumour cell line growth inhibition, 48 h
786-0 = test system: 786-0
A498 = test system: A498
A549 = test system: A549
ACHN = test system: ACHN
BT-549 = test system: BT-549
CAKI-1 = test system: CAKI-1
CCRF-CEM = test system: CCRF-CEM
COLO 205 = test system: COLO 205
DU-145 = test system: DU-145
EKVX = test system: EKVX
HCC 2998 = test system: HCC 2998
HCT-116 = test system: HCT-116
HCT-15 = test system: HCT-15
HL-60 = test system: HL-60
HOP-62 = test system: HOP-62
HOP-92 = test system: HOP-92
HT-29 = test system: HT-29
Hs-578T = test system: Hs-578T
IGROV-1 = test system: IGROV-1
K562 = test system: K562
KM12 = test system: KM12
M14 = test system: M14
MCF7 = test system: MCF7
MDA-MB-231 = test system: MDA-MB-231
MDA-MB-435 = test system: MDA-MB-435
MDA-N = test system: MDA-N
MOLT-4 = test system: MOLT-4
Malme-3M = test system: Malme-3M
NCI-H226 = test system: NCI-H226
NCI-H23 = test system: NCI-H23
NCI-H460 = test system: NCI-H460
NCI-H522 = test system: NCI-H522
NCI/ADR-RES = test system: NCI/ADR-RES
OVCAR-3 = test system: OVCAR-3
OVCAR-4 = test system: OVCAR-4
OVCAR-5 = test system: OVCAR-5
OVCAR-8 = test system: OVCAR-8
PC-3 = test system: PC-3
RPMI-8226 = test system: RPMI-8226
RXF 393 = test system: RXF 393
SF-268 = test system: SF-268
SF-295 = test system: SF-295
SF-539 = test system: SF-539
SK-MEL-28 = test system: SK-MEL-28
SK-MEL-2 = test system: SK-MEL-2
SK-MEL-5 = test system: SK-MEL-5
SK-OV-3 = test system: SK-OV-3
SN12C = test system: SN12C
SNB-19 = test system: SNB-19
SNB-75 = test system: SNB-75
SR = test system: SR
SW-620 = test system: SW-620
U-251 = test system: U-251
UACC-257 = test system: UACC-257
UACC-62 = test system: UACC-62
UO-31 = test system: UO-31
LOX IMVI = test system: LOX IMVI
TK-10 = test system: TK-10

Measured: GI50

C/C(=N\Nc1nc2cccnc2s1)c1ccccn1
< 0.0218 µM: HCT-15
inactive: A498 > 100 µM | MDA-N 1.81 µM | SK-MEL-2 2.98 µM
active: 786-0 0.0512 µM | A549 0.245 µM | ACHN < 0.01 µM | BT-549 0.117 µM | CAKI-1 < 0.0105 µM | CCRF-CEM < 0.01 µM | COLO 205 < 0.01 µM | DU-145 0.316 µM | EKVX < 0.01 µM | HCC 2998 1.07 µM | HCT-116 < 0.01 µM | HL-60 < 0.01 µM | HOP-62 0.401 µM | HOP-92 0.37 µM | HT-29 < 0.01 µM | Hs-578T 0.436 µM | IGROV-1 < 0.0141 µM | K562 < 0.0149 µM | KM12 0.273 µM | M14 < 0.01 µM | MCF7 0.0136 µM | MDA-MB-231 < 0.01 µM | MDA-MB-435 0.8 µM | MOLT-4 < 0.01 µM | Malme-3M < 0.01 µM | NCI-H226 < 0.0155 µM | NCI-H23 0.0228 µM | NCI-H460 0.0369 µM | NCI-H522 < 0.01 µM | NCI/ADR-RES < 0.01 µM | OVCAR-3 < 0.0169 µM | OVCAR-4 1.07 µM | OVCAR-5 0.845 µM | OVCAR-8 < 0.01 µM | PC-3 0.0202 µM | RPMI-8226 < 0.0143 µM | RXF 393 1.06 µM | SF-268 0.0284 µM | SF-295 0.288 µM | SF-539 0.124 µM | SK-MEL-28 0.364 µM | SK-MEL-5 0.033 µM | SK-OV-3 0.0902 µM | SN12C < 0.01 µM | SNB-19 0.491 µM | SNB-75 0.451 µM | SR 0.0335 µM | SW-620 < 0.0143 µM | U-251 < 0.0189 µM | UACC-257 < 0.01 µM | UACC-62 0.0586 µM | UO-31 0.0158 µM

Cc1cccc(C)c1NC(=O)/C(CC(=O)CC(c1ccccc1)c1c(O)c2ccccc2oc1=O)=N/O (centres undefined)
> 100 µM: HCT-15
inactive: 786-0 > 100 µM | A549 > 100 µM | ACHN > 100 µM | BT-549 > 100 µM | CAKI-1 > 100 µM | CCRF-CEM > 100 µM | COLO 205 > 100 µM | DU-145 > 100 µM | EKVX > 100 µM | HCC 2998 > 100 µM | HCT-116 > 100 µM | HL-60 > 100 µM | HOP-62 > 100 µM | HOP-92 31.3 µM | HT-29 > 100 µM | Hs-578T > 100 µM | IGROV-1 > 100 µM | KM12 > 100 µM | LOX IMVI > 100 µM | M14 > 100 µM | MCF7 > 100 µM | MDA-MB-231 > 100 µM | MDA-MB-435 > 100 µM | MDA-N > 100 µM | MOLT-4 > 100 µM | NCI-H226 > 100 µM | NCI-H23 > 100 µM | NCI-H460 > 100 µM | NCI-H522 > 100 µM | NCI/ADR-RES > 100 µM | OVCAR-3 > 100 µM | OVCAR-4 > 100 µM | OVCAR-5 > 100 µM | OVCAR-8 > 100 µM | PC-3 > 100 µM | RXF 393 > 100 µM | SF-268 > 100 µM | SF-295 > 100 µM | SF-539 > 100 µM | SK-MEL-28 > 100 µM | SK-MEL-2 > 100 µM | SK-MEL-5 > 100 µM | SK-OV-3 > 100 µM | SN12C > 100 µM | SNB-19 > 100 µM | SNB-75 > 100 µM | SW-620 > 100 µM | TK-10 > 100 µM | U-251 > 100 µM | UACC-257 > 100 µM | UACC-62 > 100 µM | UO-31 > 100 µM

— ChEMBL document CHEMBL1201862, “PubChem BioAssay data set” (2004)
